Measured values from US12404285B2, “KRAS G12D proteolysis targeting chimeras” (PAQ Therapeutics Inc., priority 2022, dated 2025).

Molecular target: T1, KRAS in AGS cells (KRAS G12D mutant cell line) or LS180 cells (KRAS G12D mutant cell line) (Homo sapiens, UniProt P01116, G12D)
T1 construct: CRL-187 (LS180) (so in the source); host or cells: AGS or LS180 cells
Test: KRAS Western Blot (WB) assay
Assay type: cell-based
Settings: KRAS degradation, 24 hours incubation, normalized to β-actin
Method: Day 1. Seeded AGS cells (KRAS G12D mutant cell line, ATCC, CRL-1739) or LS180 cells (KRAS G12D mutant cell line, ATCC, CRL-187) into 6-well plates (cell density: 3×10^5 cells/well/2 ml medium) in Ham's F-12 medium (Invitrogen, 11765-054) or Eagle's Minimum Essential Medium (ATCC, 30-2003) and incubated overnight at 37° C. and 5% CO2.
Day 2. Aspirated 1 ml medium from each well and added 1 ml medium containing DMSO or test compound into the well to achieve the desired final concentration. Mixed well by gentle shaking and incubated for 24 hours.
Day 3. Aspirated media from plates; washed cells with 2 ml 4° C. PBS (Solarbio, P1020-500) and aspirated the PBS. Then added 100 μl 4° C. […] lysis buffer (Boston BioProducts BP-115D) with protease and phosphatase inhibitors at vendor recommended concentrations (Roche 05892791001 and 04906837001) into each well to lyse the cells, and incubated for 20 minutes at 4° C. Cell lysate was collected into 1.5 ml Eppendorf tube, and the lysate was sonicated at 4° C. for 2 minutes (5 second pulse at 30% power with 10 second intermissions). The lysate was centrifuged at 12,000 rpm for 15 minutes at 4° C. The supernatant was transferred to a fresh Eppendorf tube, and protein concentration was quantified using a BCA kit (Solarbio, PC0020-500). Mixed the cell lysate and 5×NuPAGE SDS Loading Buffer (Beyotime, P0015L), and heated at 95° C. for 10 minutes in a heat block. Prepared samples were stored at −80° C. until SDS-PAGE procedure.
Day 4. Loaded 15 μg protein from each sample onto NuPAGE® Novex 4-12% Bis-Tris Midi Gel, 26 W (Invitrogen, WG1403BOX) and ran the gel at 120V for 1.5 hours in 1×NuPAGE® MOPS SDS Running Buffer (Novex, NP0001). Electrotransferred to nitrocellulose membrane using dry transfer method (iBlot 2 Transfer Stacks, nitrocellulose, IB23001) with a program consisting of 20V for 1 minute, 23V for 4 minutes and 25V for 2 minutes. Blocked the membrane with 5% BSA (Solarbio, A8020) in 1×TBST (CST, 9997S) for 1 hour at room temperature. Incubated with KRAS antibody (LSBio, LS-C175665, clone 2C1) at 1:1000 dilution and β-actin antibody at 1:1000 dilution (CST, 4970S) in TBST containing 1% BSA (Solarbio, A8020) at 4° C. overnight.
Day 5. Washed nitrocellulose membrane three times with 1×TBST for 10 minutes each at room temperature. Incubated with fluorescently labeled secondary antibodies at 1:5000 dilution in TBST containing 1% BSA (anti-rabbit IgG, Licor, 926-32211; anti-mouse IgG, LI-COR, 926-68070) for 1 hour at room temperature. Washed membrane three times with TBST, 10 minutes each. Scanned the membrane on LiCOR scanner for fluorescent signal(s) and quantified KRAS bands and β-actin bands for normalization.
The data are reported in Table 2, wherein “A” indicates a DC50 of less than 1 μM; “B” indicates a DC50 of greater than or equal to 1 μM and less than 10 μM; and “C” indicates a DC50 of greater than or equal to 10 μM.

T1 sequence (P01116 1-188 isoform P01116-2 G12D): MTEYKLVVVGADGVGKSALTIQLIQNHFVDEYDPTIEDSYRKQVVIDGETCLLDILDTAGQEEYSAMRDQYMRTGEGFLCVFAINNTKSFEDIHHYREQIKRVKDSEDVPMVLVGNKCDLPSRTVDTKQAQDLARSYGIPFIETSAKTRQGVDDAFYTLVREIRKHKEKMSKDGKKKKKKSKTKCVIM

DC50	SMILES
A (DC50 less than 1 μM)	C#Cc1c(F)ccc2cc(O)cc(-c3ncc4c(N5CC6CCC(C5)N6)nc(OC[C@@]56CCCN5[C@H](COC(=O)NCCCCCCCCCCc5cccc7c5n(C)c(=O)n7C5CCC(=O)NC5=O)CC6)nc4c3F)c12 (stereo partly drawn) [Compound 014, [(3S,8S)-8-[[4-(3,8-diazabicyclo[3.2.1]octan-3-yl)-7-(8-ethynyl-7-fluoro-3-hydroxy-1-naphthyl)-8-fluoro-pyrido[4,3-d]pyrimidin-2-yl]oxymethyl]-1,2,3,5,6,7-hexahydropyrrolizin-3-yl]methyl N-[10-[1-(2,6-dioxo-3-piperidyl)-3-methyl-2-oxo-benzimidazol-4-yl]decyl]carbamate]
A (DC50 less than 1 μM)	C#Cc1c(F)ccc2cc(O)cc(-c3ncc4c(N5CC6CCC(C5)N6)nc(OC[C@@]56CCCN5[C@H](COC(=O)NCCCCCCCCCCNc5ccc7c(c5)C(=O)N(C5CCC(=O)NC5=O)C7=O)CC6)nc4c3F)c12 (stereo partly drawn) [Compound 015, [(3S,8S)-8-[[4-(3,8-diazabicyclo[3.2.1]octan-3-yl)-7-(8-ethynyl-7-fluoro-3-hydroxy-1-naphthyl)-8-fluoro-pyrido[4,3-d]pyrimidin-2-yl]oxymethyl]-1,2,3,5,6,7-hexahydropyrrolizin-3-yl]methyl N-[10-[[2-(2,6-dioxo-3-piperidyl)-1,3-dioxo-isoindolin-5-yl]amino]decyl]carbamate]
A (DC50 less than 1 μM)	C#Cc1c(F)ccc2cc(O)cc(-c3ncc4c(N5CC6CCC(C5)N6)nc(OC[C@@]56CCCN5[C@H](COC(=O)NCCCCCCCCCNc5cccc7c5C(=O)N(C5CCC(=O)NC5=O)C7=O)CC6)nc4c3F)c12 (stereo partly drawn) [Compound 016, ((3S,7aS)-7a-(((4-(3,8-diazabicyclo[3.2.1]octan-3-yl)-7-(8-ethynyl-7-fluoro-3-hydroxynaphthalen-1-yl)-8-fluoropyrido[4,3-d]pyrimidin-2-yl)oxy)methyl)hexahydro-1H-pyrrolizin-3-yl)methyl (9-((2-(2,6-dioxopiperidin-3-yl)-1,3-dioxoisoindolin-4-yl)amino)nonyl)carbamate]
C (DC50 greater than or equal to 10 μM)	C#Cc1c(F)ccc2cc(O)cc(-c3ncc4c(N5CC6CCC(C5)N6)nc(OC[C@@]56CCCN5[C@H](COC(=O)NCCCCNc5cccc7c5C(=O)N(C5CCC(=O)NC5=O)C7=O)CC6)nc4c3F)c12 (stereo partly drawn) [Compound 019, [(3S,8S)-8-[[4-(3,8-diazabicyclo[3.2.1]octan-3-yl)-7-(8-ethynyl-7-fluoro-3-hydroxy-1-naphthyl)-8-fluoro-pyrido[4,3-d]pyrimidin-2-yl]oxymethyl]-1,2,3,5,6,7-hexahydropyrrolizin-3-yl]methyl-N-[4-[[2-(2,6-dioxo-3-piperidyl)-1,3-dioxo-isoindolin-4-yl]amino]butyl]carbamate]
C (DC50 greater than or equal to 10 μM)	C#Cc1c(F)ccc2cc(O)cc(-c3ncc4c(N5CC6CCC(C5)N6)nc(OC[C@@]56CCCN5[C@H](COC(=O)NCCCNc5cccc7c5C(=O)N(C5CCC(=O)NC5=O)C7=O)CC6)nc4c3F)c12 (stereo partly drawn) [Compound 020, [(3S,8S)-8-[[4-(3,8-diazabicyclo[3.2.1]octan-3-yl)-7-(8-ethynyl-7-fluoro-3-hydroxy-1-naphthyl)-8-fluoro-pyrido[4,3-d]pyrimidin-2-yl]oxymethyl]-1,2,3,5,6,7-hexahydropyrrolizin-3-yl]methylN-[3-[[2-(2,6-dioxo-3-piperidyl)-1,3-dioxo-isoindolin-4-yl]amino]propyl]carbamate]
C (DC50 greater than or equal to 10 μM)	C#Cc1c(F)ccc2cc(O)cc(-c3ncc4c(N5CC6CCC(C5)N6)nc(OC[C@]56CCCN5[C@@H](COC(=O)NCCCCCCNc5cccc7c5C(=O)N(C5CCC(=O)NC5=O)C7=O)CC6)nc4c3F)c12 (stereo partly drawn) [Compound 022, [(3R,8R)-8-[[4-(3,8-diazabicyclo[3.2.1]octan-3-yl)-7-(8-ethynyl-7-fluoro-3-hydroxy-1-naphthyl)-8-fluoro-pyrido[4,3-d]pyrimidin-2-yl]oxymethyl]-1,2,3,5,6,7-hexahydropyrrolizin-3-yl]methyl N-[6-[[2-(2,6-dioxo-3-piperidyl)-1,3-dioxo-isoindolin-4-yl]amino]hexyl]carbamate]
C (DC50 greater than or equal to 10 μM)	C#Cc1c(F)ccc2cc(O)cc(-c3ncc4c(N5CC6CCC(C5)N6)nc(OC[C@]56CCCN5[C@@H](COC(=O)NCCOCCOCCNc5cccc7c5C(=O)N(C5CCC(=O)NC5=O)C7=O)CC6)nc4c3F)c12 (stereo partly drawn) [Compound 025]
C (DC50 greater than or equal to 10 μM)	C#Cc1c(F)ccc2cc(O)cc(-c3ncc4c(N5CC6CCC(C5)N6)nc(OC[C@@]56CCCN5[C@H](COC(=O)NCCOCCOCCOCCNc5cccc7c5C(=O)N(C5CCC(=O)NC5=O)C7=O)CC6)nc4c3F)c12 (stereo partly drawn) [Compound 027, [(3R,8R)-8-[[4-(3,8-diazabicyclo[3.2.1]octan-3-yl)-7-(8-ethynyl-7-fluoro-3-hydroxy-1-naphthyl)-8-fluoro-pyrido[4,3-d]pyrimidin-2-yl]oxymethyl]-1,2,3,5,6,7-hexahydropyrrolizin-3-yl]methyl N-[2-[2-[2-[2-[[2-(2,6-dioxo-3-piperidyl)-1,3-dioxo-isoindolin-4-yl]amino]ethoxy]ethoxy]ethoxy]ethyl]carbamate]
C (DC50 greater than or equal to 10 μM)	C#Cc1c(F)ccc2cc(O)cc(-c3ncc4c(N5CC6CCC(C5)N6)nc(OC[C@@]56CCCN5[C@H](COC(=O)NCCOCCOCCOCCNc5cccc7c5C(=O)N(C5CCC(=O)NC5=O)C7=O)CC6)nc4c3F)c12 (stereo partly drawn) [Compound 028, [(3S,8S)-8-[[4-(3,8-diazabicyclo[3.2.1]octan-3-yl)-7-(8-ethynyl-7-fluoro-3-hydroxy-1-naphthyl)-8-fluoro-pyrido[4,3-d]pyrimidin-2-yl]oxymethyl]-1,2,3,5,6,7-hexahydropyrrolizin-3-yl]methylN-[2-[2-[2-[2-[[2-(2,6-dioxo-3-piperidyl)-1,3-dioxo-isoindolin-4-yl]amino]ethoxy]ethoxy]ethoxy]ethyl]carbamate]

SMILES	DC50
C#Cc1c(F)ccc2cc(O)cc(-c3ncc4c(N5CC6CCC(C5)N6)nc(OC[C@@]56CCCN5[C@H](COC(=O)NCCCCCCNc5ccc7c(c5)C(=O)N(C5CCC(=O)NC5=O)C7=O)CC6)nc4c3F)c12 (stereo partly drawn) [Compound 017, [(3S,8S)-8-[[4-(3,8-diazabicyclo[3.2.1]octan-3-yl)-7-(8-ethynyl-7-fluoro-3-hydroxy-1-naphthyl)-8-fluoro-pyrido[4,3-d]pyrimidin-2-yl]oxymethyl]-1,2,3,5,6,7-hexahydropyrrolizin-3-yl]methyl N-[6-[[2-(2,6-dioxo-3-piperidyl)-1,3-dioxo-isoindolin-5-yl]amino]hexyl]carbamate]	B (DC50 greater than or equal to 1 μM and less than 10 μM)
C#Cc1c(F)ccc2cc(O)cc(-c3ncc4c(N5CC6CCC(C5)N6)nc(OC[C@@]56CCCN5[C@H](COC(=O)NCCCCCCCCNc5cccc7c5C(=O)N(C5CCC(=O)NC5=O)C7=O)CC6)nc4c3F)c12 (stereo partly drawn) [Compound 018]	B (DC50 greater than or equal to 1 μM and less than 10 μM)
C#Cc1c(F)ccc2cc(O)cc(-c3ncc4c(N5CC6CCC(C5)N6)nc(OC[C@@]56CCCN5[C@H](COC(=O)NCCCCCCNc5cccc7c5C(=O)N(C5CCC(=O)NC5=O)C7=O)CC6)nc4c3F)c12 (stereo partly drawn) [Compound 021, [(3S,8S)-8-[[4-(3,8-diazabicyclo[3.2.1]octan-3-yl)-7-(8-ethynyl-7-fluoro-3-hydroxy-1-naphthyl)-8-fluoro-pyrido[4,3-d]pyrimidin-2-yl]oxymethyl]-1,2,3,5,6,7-hexahydropyrrolizin-3-yl]methylN-[6-[[2-(2,6-dioxo-3-piperidyl)-1,3-dioxo-isoindolin-4-yl]amino]hexyl]carbamate]	B (DC50 greater than or equal to 1 μM and less than 10 μM)
